Experiments:
[1] = target: T1, Recombinant STAT6 protein (STAT6(W123-T658)) (Homo sapiens, UniProt P42226); assay: STAT6 Fluorescence Polarization (FP) Assay; type: binding; settings: STAT6(W123-T658) 250 nM, probe 5-FAM-ApYKPFQDLI-NH2 2 nM, 45-minute incubation
T1 construct: STAT6(W123-T658)
T1 sequence (P42226 123-658): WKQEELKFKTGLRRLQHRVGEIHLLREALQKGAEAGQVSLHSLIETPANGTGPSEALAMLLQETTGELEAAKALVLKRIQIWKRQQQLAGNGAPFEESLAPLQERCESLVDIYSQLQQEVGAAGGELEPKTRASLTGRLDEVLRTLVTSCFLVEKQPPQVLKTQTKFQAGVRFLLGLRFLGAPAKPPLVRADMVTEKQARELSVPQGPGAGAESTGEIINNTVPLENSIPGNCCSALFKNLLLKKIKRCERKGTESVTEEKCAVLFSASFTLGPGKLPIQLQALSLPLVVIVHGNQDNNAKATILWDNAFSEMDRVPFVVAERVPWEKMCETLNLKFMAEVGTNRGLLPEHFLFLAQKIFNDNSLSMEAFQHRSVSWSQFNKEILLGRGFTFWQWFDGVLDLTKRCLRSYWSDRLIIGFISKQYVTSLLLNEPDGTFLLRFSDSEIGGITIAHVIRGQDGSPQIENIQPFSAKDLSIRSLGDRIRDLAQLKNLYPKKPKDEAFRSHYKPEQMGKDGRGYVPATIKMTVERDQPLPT
Outline: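 STAT6 (W123-T658) at 250 nM mixed with 2 nM 5-FAM-ApYKPFQDLI-NH2 probe in HEPES pH 7.4 buffer with DTT and Tween 20, 1% DMSO final. Polarization read after 45 min at room temperature; IC50 by nonlinear regression of mP versus log concentration, reported in bins A–D.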

[2] = target: T2, Recombinant STAT3 protein (STAT3(G127-I722)) (Homo sapiens, UniProt P40763); assay: STAT3 Fluorescence Polarization (FP) Assay; type: binding; settings: STAT3(G127-I722) 25 nM, probe 5-FAM-GpYLPQTV-NH2 2 nM, 45-minute incubation
T2 construct: STAT3(G127-I722)
Outline: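 STAT3(G127-I722) at 25 nM and 5-FAM-GpYLPQTV-NH2 probe at 2 nM in HEPES pH 7.4 buffer with NaCl, EDTA, Tween 20, DTT; 1% DMSO. FP read after 45 min at room temperature; IC50 by nonlinear regression of mP vs log concentration, binned A ≤100 nM to D >10 μM.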

T2 sequence (P40763 127-722, species assumed): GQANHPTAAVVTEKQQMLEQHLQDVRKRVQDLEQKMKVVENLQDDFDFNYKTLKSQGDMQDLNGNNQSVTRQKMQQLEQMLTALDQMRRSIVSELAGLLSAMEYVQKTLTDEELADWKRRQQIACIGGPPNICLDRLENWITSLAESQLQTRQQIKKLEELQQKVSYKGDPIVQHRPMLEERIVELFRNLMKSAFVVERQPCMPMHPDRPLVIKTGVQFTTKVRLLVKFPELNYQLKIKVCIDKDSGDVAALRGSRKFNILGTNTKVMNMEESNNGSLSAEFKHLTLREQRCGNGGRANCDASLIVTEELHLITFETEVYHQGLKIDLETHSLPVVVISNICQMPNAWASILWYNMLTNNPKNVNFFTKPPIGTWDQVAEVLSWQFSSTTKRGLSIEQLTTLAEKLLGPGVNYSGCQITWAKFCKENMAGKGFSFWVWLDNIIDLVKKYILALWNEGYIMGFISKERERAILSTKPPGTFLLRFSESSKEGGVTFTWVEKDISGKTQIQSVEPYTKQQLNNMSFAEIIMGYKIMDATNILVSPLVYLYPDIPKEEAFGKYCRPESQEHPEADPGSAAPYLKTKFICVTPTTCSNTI

Row | Compound | IC50 [1] [nM] | IC50 [2] [nM]
1 | CC1(O)CCN(C2CN(C(=O)[C@@H]3CC[C@@H]4C[C@H]5C[C@H]5C[C@H](NC(=O)c5cc6cc(C(F)(F)P(=O)(O)O)ccc6s5)C(=O)N43)C2)CC1 [Compound 110, (difluoro(2-(((3S,6S,7aS,8aR,9aR)-3-(3-(4-hydroxy-4-methylpiperidin-1-yl)azetidine-1-carbonyl)-5-oxodecahydro-1H-cyclopropa[d]pyrrolo[1,2-a]azocin-6-yl)carbamoyl)benzo[b]thiophen-5-yl)methyl)phosphonic acid] | 3000 to 30000 | 100 to 1000
2 | O=C(N[C@H]1C[C@@H]2C[C@@H]2C[C@H]2CC[C@@H](C(=O)N3CC(c4cc[nH]n4)C3)N2C1=O)c1cc2cc(C(F)(F)P(=O)(O)O)ccc2s1 [Compound 111, ((2-(((3S,6S,7aS,8aR,9aR)-3-(3-(1H-pyrazol-3-yl)azetidine-1-carbonyl)-5-oxodecahydro-1H-cyclopropa[d]pyrrolo[1,2-a]azocin-6-yl)carbamoyl)benzo[b]thiophen-5-yl)difluoromethyl)phosphonic acid] | 300 to 3000 | < 100
3 | O=C(N[C@H]1C[C@@H]2C[C@@H]2C[C@H]2CC[C@@H](C(=O)N[C@@H]3CCN(c4cccnc4)C3)N2C1=O)c1cc2cc(C(F)(F)P(=O)(O)O)ccc2s1 [Compound 112, (difluoro(2-(((3S,6S,7aS,8aR,9aR)-5-oxo-3-(((R)-1-(pyridin-3-yl)pyrrolidin-3-yl)carbamoyl)decahydro-1H-cyclopropa[d]pyrrolo[1,2-a]azocin-6-yl)carbamoyl)benzo[b]thiophen-5-yl)methyl)phosphonic acid] | 300 to 3000 | < 100
4 | O=C(N[C@H]1C[C@@H]2C[C@@H]2C[C@H]2CC[C@@H](C(=O)N3CCN(c4ccccn4)CC3)N2C1=O)c1cc2cc(C(F)(F)P(=O)(O)O)ccc2s1 [Compound 113, (difluoro(2-(((3S,6S,7aS,8aR,9aR)-5-ox0-3-(4-(pyridin-2-yl)piperazine-1-carbonyl)decahydro-1H-cyclopropa[d]pyrrolo[1,2-a]azocin-6-yl)carbamoyl)benzo[b]thiophen-5-yl)methyl)phosphonic acid] | 3000 to 30000 | 100 to 1000
5 | CO[C@@H]1CCN(C(=O)C2CN(C(=O)[C@@H]3CC[C@@H]4C[C@H]5C[C@H]5C[C@H](NC(=O)c5cc6cc(C(F)(F)P(=O)(O)O)ccc6s5)C(=O)N43)C2)C1 [Compound 114, (difluoro(2-(((3S,6S,7aS,8aR,9aR)-3-(3-((R)-3-methoxypyrrolidine-1-carbonyl)azetidine-1-carbonyl)-5-oxodecahydro-1H-cyclopropa[d]pyrrolo[1,2-a]azocin-6-yl)carbamoyl)benzo[b]thiophen-5-yl)methyl)phosphonic acid] | 3000 to 30000 | < 100
6 | O=C(N[C@H]1C[C@@H]2C[C@@H]2C[C@H]2CC[C@@H](C(=O)N3CCN(C4CCOCC4)CC3)N2C1=O)c1cc2cc(C(F)(F)P(=O)(O)O)ccc2s1 [Compound 115, (difluoro(2-(((3S,6S,7aS,8aR,9aR)-5-ox0-3-(4-(tetrahydro-2H-pyran-4-yl)piperazine-1-carbonyl)decahydro-1H-cyclopropa[d]pyrrolo[1,2-a]azocin-6-yl)carbamoyl)benzo[b]thiophen-5-yl)methyl)phosphonic acid] | 300 to 3000 | 100 to 1000
7 | CC(=O)N1CC[C@@H](NC(=O)[C@@H]2CC[C@@H]3C[C@H]4C[C@H]4C[C@H](NC(=O)c4cc5cc(C(F)(F)P(=O)(O)O)ccc5s4)C(=O)N32)C1 [Compound 116, ((2-(((3S,6S,7aS,9aR)-3-(((R)-1-acetylpyrrolidin-3-yl)carbamoyl)-5-oxodecahydro-1H-cyclopropa[d]pyrrolo[1,2-a]azocin-6-yl)carbamoyl)benzo[b]thiophen-5-yl)difluoromethyl)phosphonic acid] | 300 to 3000 | < 100
8 | CC(=O)N1CC[C@H](NC(=O)[C@@H]2CC[C@@H]3C[C@H]4C[C@H]4C[C@H](NC(=O)c4cc5cc(C(F)(F)P(=O)(O)O)ccc5s4)C(=O)N32)C1 [Compound 117, ((2-(((3S,6S,7aS,8aR,9aR)-3-(((S)-1-acetylpyrrolidin-3-yl)carbamoyl)-5-oxodecahydro-1H-cyclopropa[d]pyrrolo[1,2-a]azocin-6-yl)carbamoyl)benzo[b]thiophen-5-yl)difluoromethyl)phosphonic acid] | 300 to 3000 | < 100
9 | NC(=O)N1CC[C@@H](NC(=O)[C@@H]2CC[C@@H]3C[C@H]4C[C@H]4C[C@H](NC(=O)c4cc5cc(C(F)(F)P(=O)(O)O)ccc5s4)C(=O)N32)C1 [Compound 118, ((2-(((3S,6S,7aS,8aR,9aR)-3-(((R)-1-carbamoylpyrrolidin-3-yl)carbamoyl)-5-oxodecahydro-1H-cyclopropa[d]pyrrolo[1,2-a]azocin-6-yl)carbamoyl)benzo[b]thiophen-5-yl)difluoromethyl)phosphonic acid] | 300 to 3000 | < 100

More lines, now with the values ahead:

Row | IC50 [1] [nM] | IC50 [2] [nM] | Compound
10 | 3000 to 30000 | 100 to 1000 | O=C(N[C@H]1C[C@@H]2C[C@@H]2C[C@H]2CC[C@@H](C(=O)N[C@@H]3CCN(C4CCOCC4)C3)N2C1=O)c1cc2cc(C(F)(F)P(=O)(O)O)ccc2s1 [Compound 119, (difluoro(2-(((3S,6S,7aS,8aR,9aR)-5-oxo-3-(((R)-1-(tetrahydro-2H-pyran-4-yl)pyrrolidin-3-yl)carbamoyl)decahydro-1H-cyclopropa[d]pyrrolo[1,2-a]azocin-6-yl)carbamoyl)benzo[b]thiophen-5-yl)methyl)phosphonic acid]
11 | 300 to 3000 | 100 to 1000 | O=C(N[C@H]1C[C@@H]2C[C@@H]2C[C@H]2CC[C@@H](C(=O)N[C@@H]3CCN(c4cn[nH]c4)C3)N2C1=O)c1cc2cc(C(F)(F)P(=O)(O)O)ccc2s1 [Compound 120, ((2-(((3S,6S,7aS,8aR,9aR)-3-(((R)-1-(1H-pyrazol-4-yl)pyrrolidin-3-yl)carbamoyl)-5-oxodecahydro-1H-cyclopropa[d]pyrrolo[1,2-a]azocin-6-yl)carbamoyl)benzo[b]thiophen-5-yl)difluoromethyl)phosphonic acid]
12 | 300 to 3000 | < 100 | O=C(N[C@H]1C[C@H]2C[C@H]2C[C@H]2CC[C@@H](C(=O)N3CC(c4ccccc4)C3)N2C1=O)c1cc2cc(C(F)(F)P(=O)(O)O)ccc2s1 [Compound 121]
13 | 3000 to 30000 | 100 to 1000 | CC(C)(CNC(=O)[C@@H]1CC[C@@H]2C[C@@H]3C[C@@H]3C[C@H](NC(=O)c3cc4cc(C(F)(F)P(=O)(O)O)ccc4s3)C(=O)N21)c1cccnc1 [Compound 122, (difluoro(2-(((3S,6S,7aR,8aS,9aR)-3-((2-methyl-2-(pyridin-3-yl)propyl)carbamoyl)-5-oxodecahydro-1H-cyclopropa[d]pyrrolo[1,2-a]azocin-6-yl)carbamoyl)benzo[b]thiophen-5-yl)methyl)phosphonic acid]
14 | 3000 to 30000 | 100 to 1000 | O=C(N[C@H]1C[C@H]2C[C@H]2C[C@H]2CC[C@@H](C(=O)NCC(CO)c3cccnc3)N2C1=O)c1cc2cc(C(F)(F)P(=O)(O)O)ccc2s1 (stereo partly drawn) [Compound 123, (difluoro(2-(((3S,6S,7aR,8aS,9aR)-3-((3-hydroxy-2-(pyridin-3-yl)propyl)carbamoyl)-5-oxodecahydro-1H-cyclopropa[d]pyrrolo[1,2-a]azocin-6-yl)carbamoyl)benzo[b]thiophen-5-yl)methyl)phosphonic acid]

Source: patent publication US20250215030A1, “STAT MODULATORS AND USES THEREOF” (Recludix Pharma, Inc., priority 2022, published 2025)
